Laboratory results as given in patent US20260193228A1, “TRIAZINONE DERIVATIVES AS NLRP3 INHIBITORS” (Hoffmann-La Roche Inc., priority 2022, published 2026).

Legend:
Format in all cases: cell-based
NLRP3 [1] = target: T1, NLRP3 (Homo sapiens, UniProt Q96P20); assay: Human whole blood IL-1β release assay; details: 1 μg/ml LPS, nigericin 10 μM, IL-1β AlphaLisa
Experimental: For systemic delivery, the ability to inhibit NLRP3 when the compounds are present within the bloodstream is of great importance. For this reason, the NLRP3 inhibitory activity of a number of compounds in human whole blood was investigated in accordance with the following protocol.
Human whole blood in Li-heparin tubes was obtained from healthy donors from a volunteer donor panel. • 1. Plate out 80 μl of whole blood containing 1 μg/ml of LPS in 96-well, clear bottom cell culture plate (Corning #3585) • 2. Add 10 μl compound (8 points half-log dilution with 10 μM top dose) or vehicle (DMSO 0.1% FAC) to the appropriate wells • 3. Incubate for 3 hours at 37° C., 5% CO2 • 4. Add 10 μl nigericin (Sigma #N7143) (10 μM FAC) to all wells • 5. Incubate for 1 hr at 37° C., 5% CO2 • 6. At the end of the incubation period, spin plates at 300×g for 5 mins to pellet cells and remove 20 μl of supernatant and add to 96-well v-bottom plates for IL-1β analysis (note: these plates containing the supernatants can be stored at −80° C. to be analysed at a later date) • 7. IL-1β was measured according to the manufacturer protocol (Perkin Elmer-AlphaLisa IL-1 Kit AL220F-5000) • 8. IC50 data is fitted to a non-linear regression equation (log inhibitor vs response-variable slope 4-parameters)

NLRP3 [2] = target: T1, NLRP3; assay: THP-1 cells pyroptosis assay; parameters: Seed THP-1 cells (25,000 cells/well) containing 1.0 μg/ml LPS; host or cells: THP-1 cells; details: 1.0 μg/ml LPS, nigericin 5 μM, resazurin readout
Experimental: THP-1 cells (ATCC #TIB-202) were grown in RPMI containing L-glutamine (Gibco #11835) supplemented with 1 mM sodium pyruvate (Sigma #S8636) and penicillin (100 units/ml)/streptomycin (0.1 mg/ml) (Sigma #P4333) in 10% Fetal Bovine Serum (FBS) (Sigma #F0804). The cells were routinely passaged and grown to confluency (~10^6 cells/ml). On the day of the experiment, THP-1 cells were harvested and resuspended into RPMI medium (without FBS). The cells were then counted and viability (>90%) checked by Trypan blue (Sigma #T8154). Appropriate dilutions were made to give a concentration of 625,000 cells/ml. To this diluted cell solution was added LPS (Sigma #L4524) to give a […] Final Assay Concentration (FAC). 40 μl of the final preparation was aliquoted into each well of a 96-well plate. The plate thus prepared was used for compound screening.
The following method step-by-step assay was followed for compound screening. • 1. Seed THP-1 cells (25,000 cells/well) containing 1.0 μg/ml LPS in 40 μl of RPMI medium (without FBS) in 96-well, black walled, clear bottom cell culture plates coated with poly-D-lysine (VWR #734-0317) • 2. Add 5 μl compound (8 points half-log dilution, with 10 μM top dose) or vehicle (DMSO 0.1% FAC) to the appropriate wells • 3. Incubate for 3 hours at 37° C., 5% CO2 • 4. Add 5 μl nigericin (Sigma #N7143) (FAC 5 μM) to all wells • 5. Incubate for 1 hr at 37° C., 5% CO2 • 6. At the end of the incubation period, spin plates at 300×g for 3 mins and remove supernatant • 7. Then add 50 μl of resazurin (Sigma #R7017) (FAC 100 μM resazurin in RPMI medium without FBS) and incubate plates for a further 1-2 hours at 37° C. and 5% CO2 • 8. Plates were read in an Envision reader at Ex 560 nm and Em 590 nm • 9. IC50 data is fitted to a non-linear regression equation (log inhibitor vs response-variable slope 4-parameters)

[3] = target: T2, hERG cardiac potassium channel (Homo sapiens, UniProt Q12809); assay: hERG screening assay (automated patch clamp, CHO crelox hERG cells); details: CHO crelox hERG cells (CHO cells that express hERG), whole-cell patch clamp, 35-37° C.
T2 construct: host or cells: CHO crelox hERG cell line (Chinese hamster)
From the text: In the drug development process of small molecules, one of the most frequent adverse side effects, leading to the failure of drugs, is the cardiac arrhythmias. Such failure is often related to the capacity of the drug to inhibit the human ether-a-go-go-related gene (hERG) cardiac potassium channel. Having no or low inhibition of the hERG cardiac potassium channel is therefore considered as beneficial.
The CHO crelox hERG cell line (ATCC reference Nr. PTA-6812, female Chinese hamster cells) was generated and validated at Roche. Ready-to-use frozen instant CHO-hERG cells were cryopreserved at Evotec (Germany) and used directly in the experiments.
The extracellular solution contains (in mM): NaCl 150; KCl 4; CaCl2 1; MgCl2 1; HEPES 10; pH 7.2-7.4 with NaOH, osmolarity 290-330 mOsm. […]
The effects of a compound on hERG K+-currents parameters will be evaluated at 2 concentrations in at least 4 cells.
The hERG test is performed using automated patch clamp system SynchroPatch® 384 (Nanion Technologies GmbH, Germany). K+ currents are measured with the patch-voltage-clamp technique in the whole-cell configuration at 35-37° C. […]
The amplitudes of IKhERG were recorded in each concentration of drug and they were compared to the vehicle control values (taken as 100%) to define fractional blocks. […]

T1 sequence (Q96P20 whole entry): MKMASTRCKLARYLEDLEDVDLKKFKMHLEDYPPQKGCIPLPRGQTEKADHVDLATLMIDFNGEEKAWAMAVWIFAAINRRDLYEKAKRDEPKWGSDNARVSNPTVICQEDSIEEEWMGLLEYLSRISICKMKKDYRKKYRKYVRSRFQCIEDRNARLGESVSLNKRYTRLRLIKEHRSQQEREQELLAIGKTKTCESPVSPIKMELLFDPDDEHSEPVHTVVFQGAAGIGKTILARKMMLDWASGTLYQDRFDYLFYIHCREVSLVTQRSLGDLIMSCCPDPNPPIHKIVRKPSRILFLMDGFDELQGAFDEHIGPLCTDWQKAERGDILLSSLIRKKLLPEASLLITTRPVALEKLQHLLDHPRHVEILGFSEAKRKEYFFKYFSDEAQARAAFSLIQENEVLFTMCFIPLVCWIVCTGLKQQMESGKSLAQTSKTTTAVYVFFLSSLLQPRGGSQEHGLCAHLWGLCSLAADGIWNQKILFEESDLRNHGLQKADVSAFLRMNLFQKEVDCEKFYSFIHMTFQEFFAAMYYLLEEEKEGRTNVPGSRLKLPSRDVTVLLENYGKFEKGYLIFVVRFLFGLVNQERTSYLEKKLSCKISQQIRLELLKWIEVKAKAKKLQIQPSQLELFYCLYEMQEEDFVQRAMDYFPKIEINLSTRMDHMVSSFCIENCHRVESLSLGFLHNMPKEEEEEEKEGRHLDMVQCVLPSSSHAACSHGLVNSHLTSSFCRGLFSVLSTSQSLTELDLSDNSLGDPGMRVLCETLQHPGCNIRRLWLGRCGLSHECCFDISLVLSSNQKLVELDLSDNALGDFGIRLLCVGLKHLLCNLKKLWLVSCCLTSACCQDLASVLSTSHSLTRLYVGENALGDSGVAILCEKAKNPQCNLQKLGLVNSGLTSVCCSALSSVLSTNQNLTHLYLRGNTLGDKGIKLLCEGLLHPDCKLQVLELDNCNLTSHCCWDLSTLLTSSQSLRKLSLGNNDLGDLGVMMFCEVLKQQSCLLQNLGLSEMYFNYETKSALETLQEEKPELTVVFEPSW
T2 sequence (Q12809 whole entry): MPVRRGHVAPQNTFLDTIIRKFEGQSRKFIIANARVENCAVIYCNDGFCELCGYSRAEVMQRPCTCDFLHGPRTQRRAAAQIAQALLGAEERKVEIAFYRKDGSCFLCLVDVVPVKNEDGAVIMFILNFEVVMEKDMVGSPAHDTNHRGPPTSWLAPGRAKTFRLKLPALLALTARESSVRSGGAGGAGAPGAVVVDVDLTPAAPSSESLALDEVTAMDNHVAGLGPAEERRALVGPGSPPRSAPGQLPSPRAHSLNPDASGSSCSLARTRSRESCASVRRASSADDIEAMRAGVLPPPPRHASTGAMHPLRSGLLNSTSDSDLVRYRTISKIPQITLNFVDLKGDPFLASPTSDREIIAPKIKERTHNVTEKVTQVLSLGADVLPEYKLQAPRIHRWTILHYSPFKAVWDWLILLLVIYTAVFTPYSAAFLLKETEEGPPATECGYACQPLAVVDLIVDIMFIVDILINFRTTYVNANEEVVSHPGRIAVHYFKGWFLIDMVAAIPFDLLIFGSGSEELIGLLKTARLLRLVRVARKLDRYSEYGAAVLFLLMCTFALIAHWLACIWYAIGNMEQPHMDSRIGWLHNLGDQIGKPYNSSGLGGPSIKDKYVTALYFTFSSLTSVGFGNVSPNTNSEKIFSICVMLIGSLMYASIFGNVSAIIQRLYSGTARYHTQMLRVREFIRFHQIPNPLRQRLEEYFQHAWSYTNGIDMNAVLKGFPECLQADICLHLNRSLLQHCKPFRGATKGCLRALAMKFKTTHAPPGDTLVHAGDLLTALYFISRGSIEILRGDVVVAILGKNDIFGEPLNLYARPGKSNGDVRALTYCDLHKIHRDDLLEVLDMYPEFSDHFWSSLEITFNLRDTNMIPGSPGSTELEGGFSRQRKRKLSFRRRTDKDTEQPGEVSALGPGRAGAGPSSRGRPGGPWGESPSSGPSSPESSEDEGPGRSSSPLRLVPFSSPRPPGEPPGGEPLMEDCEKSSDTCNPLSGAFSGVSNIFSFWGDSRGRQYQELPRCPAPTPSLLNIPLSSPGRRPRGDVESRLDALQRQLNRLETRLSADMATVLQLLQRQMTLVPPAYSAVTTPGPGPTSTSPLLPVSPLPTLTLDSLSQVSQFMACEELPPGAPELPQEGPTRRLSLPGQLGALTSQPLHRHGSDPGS

Compound: CCN1CCC[C@@H](Nc2nnc(-c3c(C)cc4c(c3O)CCO4)c(=O)n2C)C1 [Example 5, 3-[[(3R)-1-Ethyl-3-piperidyl]amino]-6-(4-hydroxy-6-methyl-2,3-dihydrobenzofuran-5-yl)-4-methyl-1,2,4-triazin-5-one]
- IC50 (NLRP3 [1]): 0.033 µM
- IC50 (NLRP3 [2]): 0.039 µM

Compound: CCN1CCC[C@@H](Nc2nnc(-c3c(C)cc(Cl)cc3O)c(=O)n2C)C1 [Example 6, 6-(4-Chloro-2-hydroxy-6-methyl-phenyl)-3-[[(3R)-1-ethyl-3-piperidyl]amino]-4-methyl-1,2,4-triazin-5-one]
- IC50 (NLRP3 [1]): 0.041 µM
- IC50 (NLRP3 [2]): 0.033 µM

Compound: CCN1CCC[C@@H](Nc2nnc(-c3c(C)cc4c(c3O)CCC4)c(=O)n2C)C1 [Example 3, 3-[[(3R)-1-Ethyl-3-piperidyl]amino]-6-(4-hydroxy-6-methyl-indan-5-yl)-4-methyl-1,2,4-triazin-5-one]
- IC50 (NLRP3 [1]): 0.041 µM
- IC20 [3]: > 10 µM
- IC50 (NLRP3 [2]): 0.017 µM

Compound: CCN1CCC[C@@H](Nc2nnc(-c3c(C)cc(C(F)(F)F)cc3O)c(=O)n2C)C1 [Example 2, 3-[[(3R)-1-ethyl-3-piperidyl]amino]-6-[2-hydroxy-6-methyl-4-(trifluoromethyl)phenyl]-4-methyl-1,2,4-triazin-5-one]
- IC50 (NLRP3 [1]): 0.052 µM
- IC20 [3]: > 10 µM
- IC50 (NLRP3 [2]): 0.0313 µM

Compound: CCN1CCC[C@@H](Nc2nnc(-c3ccc(C(F)(F)F)cc3O)c(=O)n2C)C1 [Example 1, 3-[[(3R)-1-Ethyl-3-piperidyl]amino]-6-[2-hydroxy-4-(trifluoromethyl)phenyl]-4-methyl-1,2,4-triazin-5-one; Formic Acid]
- IC50 (NLRP3 [2]): 0.616 µM

Compound: Cc1cc2c(c(O)c1-c1nnc(N[C@@H]3CCCN(CCO)C3)n(C)c1=O)CCC2 [Example 4, 3-[[(3R)-1-(2-Hydroxyethyl)-3-piperidyl]amino]-6-(4-hydroxy-6-methyl-indan-5-yl)-4-methyl-1,2,4-triazin-5-one]
- IC50 (NLRP3 [2]): 0.248 µM
